# Experiments:
# [1] = molecular target: T1, TSP1 (ORF210) from CBA120 phage (Escherichia phage Cba120, UniProt G3M189); assay: X-ray crystal structure (soak), […] Å; assay type: binding; conditions: crystal soak in mother liquor with 37% saturated sugar, Tris-HCl pH 7.0-7.6
# T1 construct: full length, 770 residues plus C-terminal 6xHis tag; codon-optimized gene expressed in E. coli BL21; homotrimer, 82 kDa monomer; one Zn2+ per trimer
# T1 sequence (G3M189 1-770): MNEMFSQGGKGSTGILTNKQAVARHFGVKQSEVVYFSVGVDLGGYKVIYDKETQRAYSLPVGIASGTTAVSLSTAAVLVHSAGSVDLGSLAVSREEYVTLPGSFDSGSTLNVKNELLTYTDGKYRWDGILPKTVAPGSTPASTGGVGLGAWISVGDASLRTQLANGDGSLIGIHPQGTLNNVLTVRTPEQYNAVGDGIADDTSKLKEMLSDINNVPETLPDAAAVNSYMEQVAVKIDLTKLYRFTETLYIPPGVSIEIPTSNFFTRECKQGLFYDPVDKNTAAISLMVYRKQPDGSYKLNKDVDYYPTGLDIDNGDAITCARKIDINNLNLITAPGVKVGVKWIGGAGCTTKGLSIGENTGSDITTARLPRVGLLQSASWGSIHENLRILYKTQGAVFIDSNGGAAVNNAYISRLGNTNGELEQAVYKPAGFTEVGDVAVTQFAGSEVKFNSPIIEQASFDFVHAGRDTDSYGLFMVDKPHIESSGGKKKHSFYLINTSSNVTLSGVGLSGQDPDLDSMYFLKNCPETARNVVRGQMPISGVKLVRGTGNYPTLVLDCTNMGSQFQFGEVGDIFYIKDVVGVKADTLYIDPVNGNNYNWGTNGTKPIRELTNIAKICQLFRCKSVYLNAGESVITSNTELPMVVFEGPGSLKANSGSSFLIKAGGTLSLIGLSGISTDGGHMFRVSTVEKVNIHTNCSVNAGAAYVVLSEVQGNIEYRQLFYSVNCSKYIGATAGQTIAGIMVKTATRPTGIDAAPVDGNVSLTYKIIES
# [2] = molecular target: T1, TSP1 (ORF210) from CBA120 phage; assay: X-ray crystal structure (soak), […] Å; assay type: binding; conditions: crystal soak in mother liquor with 37% saturated sugar, Tris-HCl pH 7.0-7.6; site on the surface of D3, single subunit (Tyr306, Tyr427, Phe443, Ala430)
# [3] = molecular target: the molecule itself; assay: SEC; analytical gel filtration, Superose 6, 100 ug TSP1, isocratic in PBS; mass from a standard curve of gel filtration standards
# [4] = molecular target: the molecule itself; assay: crystal structure; hanging drop, 0.1 M Tris-HCl pH 7.0-7.6, 16% PEG 1000, room temperature; space group P212121; MAD phasing on Se-Met crystal; 1.8 A
molecule,measurement,setting,value
OC[C@H]1O[C@@H](O)[C@H](O)[C@@H](O)[C@@H]1O [glucose],"X-ray crystal structure (soak), 2.0 Å","[1]; site in D3-D4 hole next to D4, single subunit (Glu639, Lys662, Lys615)",4OJL for TSP1/glucose complex
OC[C@H]1O[C@@H](O[C@H]2[C@H](O)[C@@H](O)[C@@H](O)O[C@@H]2CO)[C@H](O)[C@@H](O)[C@H]1O [α-lactose],"X-ray crystal structure (soak), 2.0 Å","[1]; site deep in D3-D4 hole between two subunits (Val579, Lys577, Asp585)",4OJO for TSP1/lactose complex
OC[C@H]1O[C@H](O[C@H]2[C@H](O)[C@@H](O)[C@@H](O)O[C@@H]2CO)[C@H](O)[C@@H](O)[C@@H]1O [α-maltose],"X-ray crystal structure (soak), 1.95 Å",[2],4OJP for TSP1/maltose complex
"TSP1 (tailspike protein 1, ORF210) from bacteriophage CBA120, wild-type, with C-terminal 6X-His tag (natural protein, bacteriophage CBA120 (vB_EcoM_CBA120), UniProt G3M189 1-770, looked up, Tailspike protein 1 (TSP1), open reading frame 210 (tsp1) of the phage CBA120 genome, codon-optimised synthetic gene; the encoded 770 amino acid residues followed by six histidines; A construct with an N-terminal 6X-His tag was dropped; the C-terminal tag construct was used for all experiments; also called CBA120 TSP1; wild-type TSP1; source: E. coli BL21 (pBAD24, arabinose induction), purified …) MNEMFSQGGKGSTGILTNKQAVARHFGVKQSEVVYFSVGVDLGGYKVIYDKETQRAYSLPVGIASGTTAVSLSTAAVLVHSAGSVDLGSLAVSREEYVTLPGSFDSGSTLNVKNELLTYTDGKYRWDGILPKTVAPGSTPASTGGVGLGAWISVGDASLRTQLANGDGSLIGIHPQGTLNNVLTVRTPEQYNAVGDGIADDTSKLKEMLSDINNVPETLPDAAAVNSYMEQVAVKIDLTKLYRFTETLYIPPGVSIEIPTSNFFTRECKQGLFYDPVDKNTAAISLMVYRKQPDGSYKLNKDVDYYPTGLDIDNGDAITCARKIDINNLNLITAPGVKVGVKWIGGAGCTTKGLSIGENTGSDITTARLPRVGLLQSASWGSIHENLRILYKTQGAVFIDSNGGAAVNNAYISRLGNTNGELEQAVYKPAGFTEVGDVAVTQFAGSEVKFNSPIIEQASFDFVHAGRDTDSYGLFMVDKPHIESSGGKKKHSFYLINTSSNVTLSGVGLSGQDPDLDSMYFLKNCPETARNVVRGQMPISGVKLVRGTGNYPTLVLDCTNMGSQFQFGEVGDIFYIKDVVGVKADTLYIDPVNGNNYNWGTNGTKPIRELTNIAKICQLFRCKSVYLNAGESVITSNTELPMVVFEGPGSLKANSGSSFLIKAGGTLSLIGLSGISTDGGHMFRVSTVEKVNIHTNCSVNAGAAYVVLSEVQGNIEYRQLFYSVNCSKYIGATAGQTIAGIMVKTATRPTGIDAAPVDGNVSLTYKIIES",stoichiometry N,[3],3
"Selenomethionine derivative of TSP1 (ORF210) from bacteriophage CBA120, with C-terminal 6X-His tag (natural protein, bacteriophage CBA120 (vB_EcoM_CBA120), UniProt G3M189 1-770, looked up, selenomethionine in place of methionine, Tailspike protein 1 (TSP1), open reading frame 210 (tsp1) of the phage CBA120 genome, same plasmid pBAD24::tsp1 as m1; the encoded 770 amino acid residues followed by six histidines; also called Se-Met TSP1; SeMet TSP1; source: E. coli B834 (methionine auxotroph, SelenoMet media with 40 mg/L selenomethionine), purified as the wild type; not shown: His6, C-terminal, kept) MNEMFSQGGKGSTGILTNKQAVARHFGVKQSEVVYFSVGVDLGGYKVIYDKETQRAYSLPVGIASGTTAVSLSTAAVLVHSAGSVDLGSLAVSREEYVTLPGSFDSGSTLNVKNELLTYTDGKYRWDGILPKTVAPGSTPASTGGVGLGAWISVGDASLRTQLANGDGSLIGIHPQGTLNNVLTVRTPEQYNAVGDGIADDTSKLKEMLSDINNVPETLPDAAAVNSYMEQVAVKIDLTKLYRFTETLYIPPGVSIEIPTSNFFTRECKQGLFYDPVDKNTAAISLMVYRKQPDGSYKLNKDVDYYPTGLDIDNGDAITCARKIDINNLNLITAPGVKVGVKWIGGAGCTTKGLSIGENTGSDITTARLPRVGLLQSASWGSIHENLRILYKTQGAVFIDSNGGAAVNNAYISRLGNTNGELEQAVYKPAGFTEVGDVAVTQFAGSEVKFNSPIIEQASFDFVHAGRDTDSYGLFMVDKPHIESSGGKKKHSFYLINTSSNVTLSGVGLSGQDPDLDSMYFLKNCPETARNVVRGQMPISGVKLVRGTGNYPTLVLDCTNMGSQFQFGEVGDIFYIKDVVGVKADTLYIDPVNGNNYNWGTNGTKPIRELTNIAKICQLFRCKSVYLNAGESVITSNTELPMVVFEGPGSLKANSGSSFLIKAGGTLSLIGLSGISTDGGHMFRVSTVEKVNIHTNCSVNAGAAYVVLSEVQGNIEYRQLFYSVNCSKYIGATAGQTIAGIMVKTATRPTGIDAAPVDGNVSLTYKIIES",stoichiometry N,[4],3

# Reference: PMC3966878, “Crystal Structure of ORF210 from E. coli O157:H1 Phage CBA120 (TSP1), a Putative Tailspike Protein” (PLoS ONE, 2014)
